Legend:
[1] = system: ISC-enriched organoids; assay: Primary screen, 384-well 2.5-D organoid differentiation (ENR+CD, 6 days, Target Selective Inhibitor Library, vs whole-plate median): ATP (CellTiter-Glo 3D, CTG); details: for Z.CTG (standard z score) / Dose.FC.CTG (log 2 fold change) / Dose.FC.CTG: primary screen; for Dose.FC.CTG (log 2 fold change): vs plate median; for Dose.FC.CTG: FC vs plate median; for Z.CTG: standard z score of FC
[2] = system: ISC-enriched organoids; assay: Primary screen, 384-well 2.5-D organoid differentiation (ENR+CD, 6 days): basal lysozyme secretion (LYZ.NS); assay type: cell-based, murine; details: for Z.LYZ.NS (standard z score) / Dose.FC.LYZ.NS (log 2 fold change) / Dose.FC.LYZ.NS: primary screen; for Dose.FC.LYZ.NS (log 2 fold change): vs plate median; for Dose.FC.LYZ.NS: FC vs plate median; for Z.LYZ.NS: standard z score of FC
From the text: (§1) High-throughput screening.

[3] = system: ISC-enriched organoids; assay: Primary screen, 384-well 2.5-D organoid differentiation (ENR+CD, 6 days): carbachol-induced lysozyme secretion (LYZ.S); assay type: cell-based, murine; details: primary screen; for Dose.FC.LYZ.S (log 2 fold change): vs plate median; for Dose.FC.LYZ.S: FC vs plate median
From the text: as §1

| Structure (SMILES) | Dose.FC.CTG ([1]; Dose 0.08 uM) | Z.CTG ([1]; Dose 0.08 uM) | Dose.FC.CTG ([1]; Dose 0.40 uM) | Z.CTG ([1]; Dose 0.40 uM) | Dose.FC.CTG ([1]; Dose 2.00 uM) | Z.CTG ([1]; Dose 2.00 uM) | Dose.FC.CTG ([1]; Dose 10.00 uM) | Z.CTG ([1]; Dose 10.00 uM) | Dose.FC.LYZ.NS ([2]; Dose 0.08 uM) | Z.LYZ.NS ([2]; Dose 0.08 uM) | Dose.FC.LYZ.NS ([2]; Dose 0.40 uM) | Z.LYZ.NS ([2]; Dose 0.40 uM) | Dose.FC.LYZ.NS ([2]; Dose 2.00 uM) | Z.LYZ.NS ([2]; Dose 2.00 uM) | Dose.FC.LYZ.NS ([2]; Dose 10.00 uM) | Z.LYZ.NS ([2]; Dose 10.00 uM) | Dose.FC.LYZ.S ([3]; Dose 0.08 uM) | Dose.FC.LYZ.S ([3]; Dose 0.40 uM) | Dose.FC.LYZ.S ([3]; Dose 2.00 uM) | Dose.FC.LYZ.S ([3]; Dose 10.00 uM) | also measured |
| --- | --- | --- | --- | --- | --- | --- | --- | --- | --- | --- | --- | --- | --- | --- | --- | --- | --- | --- | --- | --- | --- |
| CCOC(=O)c1ccc(N2NC(=O)/C(=C/c3ccc([N+](=O)[O-])o3)C2=O)cc1 [PYR-41] |  |  |  |  |  |  |  |  |  |  |  |  |  |  |  |  |  |  |  |  | Z.CTG (standard z score) ([1]; Dose 0.08 uM): 0.609; Dose.FC.CTG (log 2 fold change) ([1]; Dose 0.08 uM): 0.255; Z.CTG (standard z score) ([1]; Dose 0.40 uM): 0.762; Dose.FC.CTG (log 2 fold change) ([1]; Dose 0.40 uM): 0.319; Z.CTG (standard z score) ([1]; Dose 2.00 uM): 0.385; Dose.FC.CTG (log 2 fold change) ([1]; Dose 2.00 uM): 0.161; Z.CTG (standard z score) ([1]; Dose 10.00 uM): 0.229; Dose.FC.CTG (log 2 fold change) ([1]; Dose 10.00 uM): 0.096; Z.LYZ.NS (standard z score) ([2]; Dose 0.08 uM): 1.305; Dose.FC.LYZ.NS (log 2 fold change) ([2]; Dose 0.08 uM): 0.150; Z.LYZ.NS (standard z score) ([2]; Dose 0.40 uM): 0.777; Dose.FC.LYZ.NS (log 2 fold change) ([2]; Dose 0.40 uM): 0.089; Z.LYZ.NS (standard z score) ([2]; Dose 2.00 uM): 0.568; Dose.FC.LYZ.NS (log 2 fold change) ([2]; Dose 2.00 uM): 0.065; Z.LYZ.NS (standard z score) ([2]; Dose 10.00 uM): 0.861; Dose.FC.LYZ.NS (log 2 fold change) ([2]; Dose 10.00 uM): 0.099; Dose.FC.LYZ.S (log 2 fold change) ([3]; Dose 0.08 uM): 0.193; Dose.FC.LYZ.S (log 2 fold change) ([3]; Dose 0.40 uM): 0.076; Dose.FC.LYZ.S (log 2 fold change) ([3]; Dose 2.00 uM): 0.049; Dose.FC.LYZ.S (log 2 fold change) ([3]; Dose 10.00 uM): 0.129 |
| C1=N/C2=N/c3ccc(OCCN4CCCC4)c(c3)COC/C=C/COCc3cccc(c3)C(=C1)N2 [Pacritinib (SB1518)] | −0.006 log 2 fold change | −0.014 | 0.099 log 2 fold change | 0.236 | −0.235 log 2 fold change | −0.560 | −1.276 log 2 fold change | −3.047 | 0.091 log 2 fold change | 0.795 | −0.034 log 2 fold change | −0.299 | −0.219 log 2 fold change | −1.908 | −0.275 log 2 fold change | −2.391 | 0.066 log 2 fold change | −0.032 log 2 fold change | −0.304 log 2 fold change | −0.419 log 2 fold change |  |
| CC(=O)c1c(C)c2cnc(Nc3ccc(N4CCNCC4)cn3)nc2n(C2CCCC2)c1=O.Cl [Palbociclib (PD-0332991) HCl] | 0.169 log 2 fold change | 0.404 | −0.350 log 2 fold change | −0.836 | −0.083 log 2 fold change | −0.199 | −0.677 log 2 fold change | −1.617 | −0.006 log 2 fold change | −0.055 | −0.029 log 2 fold change | −0.248 | −0.051 log 2 fold change | −0.440 | −0.132 log 2 fold change | −1.150 | 0.004 log 2 fold change | −0.042 log 2 fold change | −0.122 log 2 fold change | −0.203 log 2 fold change |  |
| CC(=O)O[C@H]1C[C@@H]2CC[C@@H]3[C@H](CC[C@@]4(C)[C@H]3C[C@H]([N+]3(C)CCCCC3)[C@@H]4OC(C)=O)[C@@]2(C)C[C@@H]1[N+]1(C)CCCCC1.[Br-].[Br-] [Pancuronium dibromide] | 0.217 log 2 fold change | 0.519 | 0.226 log 2 fold change | 0.541 | −0.012 log 2 fold change | −0.029 | 0.062 log 2 fold change | 0.148 | 0.128 log 2 fold change | 1.118 | 0.047 log 2 fold change | 0.406 | 0.093 log 2 fold change | 0.806 | 0.035 log 2 fold change | 0.302 | 0.213 log 2 fold change | 0.094 log 2 fold change | 0.099 log 2 fold change | 0.004 log 2 fold change |  |

Reference: patent US20230398130A1, “METHODS AND COMPOSITIONS FOR DIFFERENTIATING STEM CELLS” (Massachusetts Institute of Technology, priority 2020, published 2023)
